Data on eight molecules can be found in patent publication US3950354A, “Imidazolylacetic acid amides” (Bayer Aktiengesellschaft, priority 1972, dated 1976).

≈ marks a conversion by molar mass, not a printed value. Like-named read-outs stand apart in the source and are kept apart here.

For test [1], the system named is Trichophyton mentagrophytes. The experiment in a line: Anti-mycotic spectrum of action in vitro, series dilution test (Trichophyton mentagrophytes). It is filed as cell-based. The conditions noted are these: read-out: Minimum inhibitory concentration. How it is done: (§1) Determination of the anti-mycotic spectrum of action in vitro, by the series dilution test
(§2) The nutrient substrates used were Sabouraud's milieu d'epreuve for dermatophytes and moulds, and meat broth-glucose bouillon for blastomycetes and biphase fungi.
(§3) The incubation temperature was 28°C and the incubation time was 24 to 96 hours.

For a further test, the system named is Aspergillus niger. The experiment in a line: Anti-mycotic spectrum of action in vitro, series dilution test (Aspergillus niger). To be noted: * = 90% inhibition of growth, read-out: Minimum inhibitory concentration. The format is cell-based. How it is done: as §1, §2, §3
The next test relates to Microsporon felineum. The experiment in a line: Anti-mycotic spectrum of action in vitro, series dilution test (Microsporon felineum). The format is cell-based. The conditions noted are these: read-out: Minimum inhibitory concentration. How it is done: as §1, §2, §3
A further test concerns Penicillium commune. The experiment in a line: Anti-mycotic spectrum of action in vitro, series dilution test (Penicillium commune). It is filed as cell-based. To be noted: read-out: Minimum inhibitory concentration. On the procedure: as §1, §2, §3
In test [2] the test system is Candida albicans. The experiment in a line: Anti-mycotic spectrum of action in vitro, series dilution test (Candida albicans). It is filed as cell-based. To be noted: read-out: Minimum inhibitory concentration. How it is done:
as §1, §2, §3

Test [3] concerns Candida albicans. The experiment in a line: Candidosis of mice. The format is in vivo, Mice of type SPF-CF1. The conditions noted are these: oral, 50, 75, 100 and 150 mg/kg, one hour before and 7 hours after infection; 1 to 2 × 10^6 Candida cells intravenously. How it is done: Mice of type SPF-CF1 were intravenously infected with 1 to 2 × 10^6 Candida cells which were suspended in physiological sodium chloride solution.
One hour before and 7 hours after infection, the animals were treated orally with 50, 75, 100 and 150 mg of the compounds according to the invention/kg of body weight. Untreated control animals died of the infection, 3 to 6 days after infection.

Where [4] appears, read: n.s. = no serum added, Sabouraud's milieu d'epreuve, 28°C, 24 to 96 hours.
[5] abbreviates: n.s. = no serum added, meat broth-glucose bouillon, 28°C, 24 to 96 hours.
Where [6] appears, read: n.s. = no serum added, * = 90% inhibition of growth.
Setting [7] is: n.s. = no serum added, + = 50% inhibition of growth.

Take `O=C(N1CCN(c2ccccc2Cl)CC1)C(c1ccccc1)(c1ccccc1)n1ccnc1` [Example 13, 4-[ω,ω-diphenyl-ω-imidazolyl-(1)-methylcarbonyl]-1-o-chlorophenyl-piperazine]: the MIC in test [1] (setting [4]) was 10 µg/mL (≈ 21.9 µM); in test [1] (w.s. = with 30% serum added), 40 µg/mL (≈ 87.5 µM); in the test with Aspergillus niger (n.s. = no serum added), 1 µg/mL (≈ 2.19 µM); in the test on Aspergillus niger (w.s. = with 30% serum added), 100 µg/mL (≈ 219 µM); in the test on Microsporon felineum (28°C, 24 to 96 hours), 100 µg/mL (≈ 219 µM); with Penicillium commune (28°C, 24 to 96 hours), greater than 100 µg/mL. In the test with Candida albicans [2] (setting [5]), the MIC is greater than 100 µg/mL.
Regarding `O=C(NC1CCCCC1)C(c1ccccc1)(c1ccccc1)n1ccnc1` [Example 7, ω,ω-diphenyl-ω-imidazolyl-(1)-acetic acid cyclohexylamide], the MIC in test [1] (setting [6]) was 32 µg/mL (≈ 89 µM); in test [1] (w.s. = with 30% serum added), greater than 64 µg/mL; with Penicillium commune (28°C, 24 to 96 hours), greater than 64 µg/mL; in the test on Candida albicans [2] (setting [6]) it was 4 µg/mL (≈ 11.1 µM); in the test on Candida albicans [2] (w.s. = with 30% serum added), 8 µg/mL (≈ 22.3 µM). For the same molecule, the “Action in the case of Candida albicans (survivals on 6th day after infection)” value (shortened to “Action in the case of Candida albicans”) in the test with Candida albicans [3] is listed as “++ (60 to 80% survivials on 6th day after infection)”.
Take `O=C(Nc1ccc(Cl)cc1Cl)C(c1ccccc1)(c1ccccc1)n1ccnc1` [Example 6, ω,ω-diphenyl-ω-imidazolyl-(1)-acetic acid 2,4-dichloroanilide]: the MIC in test [1] (setting [6]) turned out to be 1 µg/mL (≈ 2.37 µM); in test [1] (w.s. = with 30% serum added) it was 8 µg/mL (≈ 18.9 µM); in the test on Aspergillus niger (n.s. = no serum added) it was 4 µg/mL (≈ 9.47 µM); with Aspergillus niger (w.s. = with 30% serum added), 8 µg/mL (≈ 18.9 µM); in the test on Microsporon felineum (* = 90% inhibition of growth) it was 4 µg/mL (≈ 9.47 µM); in the test with Penicillium commune (* = 90% inhibition of growth) it was 64 µg/mL (≈ 152 µM). Also, the MIC came to 1 µg/mL (≈ 2.37 µM) in the test with Candida albicans [2] (setting [6]) and 32 µg/mL (≈ 75.8 µM) with Candida albicans [2] (w.s. = with 30% serum added, * = 90% inhibition of growth).
In the case of `CCOC(=O)N1CCN(C(=O)C(c2ccccc2)(c2ccccc2)n2ccnc2)CC1` [Example 12, 4-[ω,ω-diphenyl-ω-imidazolyl-(1)-methylcarbonyl]-1-ethoxycarbonyl-piperazine], the MIC is 64 µg/mL in test [1] (setting [7]); greater than 64 µg/mL with Penicillium commune (28°C, 24 to 96 hours); 64 µg/mL in the test with Candida albicans [2] (setting [7]); greater than 64 µg/mL in the test with Candida albicans [2] (w.s. = with 30% serum added). Besides, the “Action in the case of Candida albicans” value with Candida albicans [3] is listed as “+ (50% survivals on 6th day after infection)”.
Regarding `O=C(N1CCS(=O)(=O)CC1)C(c1ccc(Cl)cc1)(c1ccc(Cl)cc1)n1ccnc1` [Example 2, [ω,ω-di(4-chlorophenyl)-ω-imidazolyl-(1)-methylcarbonyl-(4)]-1,4-thiazine dioxide], the MIC in test [1] (setting [4]) was 100 µg/mL (≈ 215 µM); in the test with Penicillium commune (28°C, 24 to 96 hours) it was greater than 100 µg/mL; in the test with Candida albicans [2] (setting [5]), greater than 100 µg/mL. In addition, the “Action in the case of Candida albicans” value with Candida albicans [3] is “+ (50% survivals on 6th day after infection)”.
Consider `O=C(N1CCS(=O)(=O)CC1c1ccccc1)C(c1ccc(Cl)cc1)(c1ccc(Cl)cc1)n1ccnc1` (stereo not drawn) [Example 11, 4-[ω,ω-di-(4-chlorophenyl)-ω-imidazolyl-(1)-methylcarbonyl]-3-phenyl-1,4-thiazine dioxide], for which the MIC in test [1] (setting [4]) was 32 µg/mL (≈ 59.2 µM); in test [1] (w.s. = with 30% serum added), 32 µg/mL (≈ 59.2 µM); in the test with Penicillium commune (28°C, 24 to 96 hours), greater than 64 µg/mL; in the test on Candida albicans [2] (setting [5]), greater than 64 µg/mL; in the test with Candida albicans [2] (w.s. = with 30% serum added) it was greater than 64 µg/mL.
Consider `O=C(Nc1cccc(C(F)(F)F)c1)C(c1ccccc1)(c1ccccc1)n1ccnc1` [Example 4, ω,ω-diphenyl-ω-imidazolyl-(1)-acetic acid 3-trifluoromethylanilide], for which the MIC is 64 µg/mL (≈ 152 µM) in test [1] (setting [4]); 64 µg/mL (≈ 152 µM) in test [1] (w.s. = with 30% serum added); greater than 64 µg/mL in the test on Penicillium commune (28°C, 24 to 96 hours); greater than 64 µg/mL in the test on Candida albicans [2] (setting [5]); greater than 64 µg/mL in the test with Candida albicans [2] (w.s. = with 30% serum added).
With `Cc1cc(Cl)ccc1NC(=O)C(c1ccccc1)(c1ccccc1)n1ccnc1` [Example 5, ω,ω-diphenyl-ω-imidazolyl-(1)-acetic acid 2-methyl-4-chloro-anilide], the MIC in test [1] (setting [4]) is 32 µg/mL (≈ 79.6 µM); in test [1] (w.s. = with 30% serum added), 32 µg/mL (≈ 79.6 µM); with Penicillium commune (28°C, 24 to 96 hours), greater than 64 µg/mL; with Candida albicans [2] (setting [7]), 8 µg/mL; in the test with Candida albicans [2] (w.s. = with 30% serum added, + = 50% inhibition of growth) it was 64 µg/mL.
